Assay results taken from US20080319000A1, “Use of 3,1IB-Cis-Dihydrotetrabenazine for the Treatment of Symptoms of Huntingtons Disease” (CAMBRIDGE LABORATORIES (IRELAND) LIMITED, priority 2005, published 2008).

System: B6CBA-Tg(HDexon1)62Gpb/1J transgenic (R6/2) mice
Test: Simplified Irwin test in transgenic mice model of Huntington's disease
Type: in vivo
Procedure: B6CBA-Tg(HDexon1)62Gpb/1J transgenic (R6/2) mice are transgenic for the 5-end of the human HD gene carrying (CAG) 115-(CAG) 150 repeat expansions. […] These symptoms appear between 6 and 8 weeks of age. […] Female B6CBa-Tg(HDexon1)62Gpb/1J transgenic mice (Jackson Laboratory, USA) were housed 5 per cage in an enriched environment under a light-dark cycle of 12 h-12 h (light on at 7.00 am, off at 7.00 pm) at a room temperature of 21±2° C., with 50±15% humidity. The mice had access to commercial mouse chow (mouse/rate breeding, ref. 9341 Provimi Kliba, Switzerland) and tap water. […] Two hours before the observations, animals were placed in individual cages. Measurements were first carried out in the individual cages. The animal's convulsions, tremors-twitches, stereotypies and vocalizations were recorded. The animal was then placed in a 58.5×68.5 cm open field with a 6 cm rim and observed for approximately 3 minutes. Gait characteristics were ranked. The presence of convulsions or tremors-twitches and stereotypies was again noted. At the end of the 3 minutes, the number of faecal boluses and pools of urine was recorded. The mice were then returned to their individual cages after testing. Group 1: hemizygote Transgenic B6CBA-Tg(HDexon 1)62Gpb/1J mice treated with vehicle i.p. once a day for 4 days (from day 0 to day 3) Group 2: hemizygote Transgenic B6CBA-Tg(HDexon 1)62Gpb/1J mice treated with 5 mg/kg i.p. of test item once a day for 4 days (from day 0 to day 3) […] • Test item administration • Simplified Irwin test, 40 minutes after administration • Rotarod test, immediately after the simplified Irwin test • Test item administration • Simplified Irwin test, 40 min after administration • Rotarod test, immediately after simplified #Irwin test • Test item administration • Simplified Irwin test, 40 min after administration • Locomotor activity test, immediately after the simplified Irwin test Simplified Irwin scores were analysed using non-parametric Mann-Whitney's U test. Locomotor activity data were analysed using Dunnett's t-test. Rotarod scores were analysed using the non-parametric Mann-Whitney's U-test. Statistical analyses were performed using the software Statview SE^+graphics software, Brain Power.

[1] = home cage, Day 0 after administration, 5 mg/kg i.p. once a day Day 0-3
[2] = home cage, Day 0 before administration, 5 mg/kg i.p. once a day Day 0-3
[3] = home cage, Day 1, 5 mg/kg i.p. once a day Day 0-3
[4] = home cage, Day 2, 5 mg/kg i.p. once a day Day 0-3
[5] = home cage, Day 3, 5 mg/kg i.p. once a day Day 0-3
[6] = open field, Day 0 after administration, 5 mg/kg i.p. once a day Day 0-3
[7] = open field, Day 0 before administration, 5 mg/kg i.p. once a day Day 0-3
[8] = open field, Day 1, 5 mg/kg i.p. once a day Day 0-3
[9] = open field, Day 2, 5 mg/kg i.p. once a day Day 0-3
[10] = open field, Day 3, 5 mg/kg i.p. once a day Day 0-3
[11] = open field, Day 17, 5 mg/kg i.p. once a day Day 0-3
[12] = open field, Day 21, 5 mg/kg i.p. once a day Day 0-3
[13] = open field, Day 24, 5 mg/kg i.p. once a day Day 0-3
[14] = open field, Day 27, 5 mg/kg i.p. once a day Day 0-3
[15] = open field, Day 31, 5 mg/kg i.p. once a day Day 0-3
[16] = period of 17 to 24 days after administration

SMILES: COc1cc2c(cc1OC)[C@H]1C[C@H](O)[C@@H](CC(C)C)CN1CC2 (single isomer, unassigned) [Isomer B]
- incidences of involuntary movements such as involuntary chorea, tremors and twitches (after 21 days versus prior to administration): no worse after 21 days than they had been prior to administration
- Convulsions [1]: 0.13
- Grooming [1]: 7.38 s
- Stereotypies [1]: — (Sign never observed (equivalent to 0.00 ± 0.00))
- Tremors-Twitches [1]: 1.13
- Vocalization [1]: — (Sign never observed (equivalent to 0.00 ± 0.00))
- Convulsions [2]: 0.22
- Grooming [2]: 10.00 s
- Stereotypies [2]: — (Sign never observed (equivalent to 0.00 ± 0.00))
- Tremors-Twitches [2]: 1.44
- Vocalization [2]: — (Sign never observed (equivalent to 0.00 ± 0.00))
- Convulsions [3]: — (Sign never observed (equivalent to 0.00 ± 0.00))
- Grooming (sec) [3]: — (Sign never observed (equivalent to 0.00 ± 0.00))
- Stereotypies [3]: — (Sign never observed (equivalent to 0.00 ± 0.00))
- Tremors-Twitches [3]: 1.00
- Vocalization [3]: — (Sign never observed (equivalent to 0.00 ± 0.00))
- Convulsions [4]: — (Sign never observed (equivalent to 0.00 ± 0.00))
- Grooming [4]: 7.78 s
- Stereotypies [4]: — (Sign never observed (equivalent to 0.00 ± 0.00))
- Tremors-Twitches [4]: 0.78
- Vocalization [4]: — (Sign never observed (equivalent to 0.00 ± 0.00))
- Convulsions [5]: 0.11
- Grooming [5]: 4.22 s
- Stereotypies [5]: — (Sign never observed (equivalent to 0.00 ± 0.00))
- Tremors-Twitches [5]: 1.00
- Vocalization [5]: — (Sign never observed (equivalent to 0.00 ± 0.00))
- Convulsions [6]: 0.67
- Defecation (N° of boluses) [6]: 1.44 N° of boluses
- Gait [6]: 0.33
- Grooming [6]: 3.11 s
- Stereotypies [6]: 0.11
- Tremors-Twitches [6]: 1.89
- Urination (N° of pools) [6]: 0.44 N° of pools
- Vocalisation [6]: 0.22
- Convulsions [7]: — (Sign never observed (equivalent to 0.00 ± 0.00))
- Defecation (N° of boluses) [7]: 2.56 N° of boluses
- Gait [7]: 1.11
- Grooming [7]: 19.44 s
- Stereotypies [7]: — (Sign never observed (equivalent to 0.00 ± 0.00))
- Tremors-Twitches [7]: 2.11
- Urination (N° of pools) [7]: 0.67 N° of pools
- Vocalisation [7]: 0.44
- Convulsions [8]: 0.11
- Defecation (N° of boluses) [8]: 0.89 N° of boluses
- Gait [8]: 1.00
- Grooming [8]: 7.78 s
- Stereotypies [8]: — (Sign never observed (equivalent to 0.00 ± 0.00))
- Tremors-Twitches [8]: 2.33
- Urination (N° of pools) [8]: 0.11 N° of pools
- Vocalisation [8]: 0.67
- Convulsions [9]: — (Sign never observed (equivalent to 0.00 ± 0.00))
- Defecation (N° of boluses) [9]: 1.22 N° of boluses
- Gait [9]: 0.67
- Grooming [9]: 20.56 s
- Stereotypies [9]: — (Sign never observed (equivalent to 0.00 ± 0.00))
- Tremors-Twitches [9]: 2.00
- Urination (N° of pools) [9]: 0.33 N° of pools
- Vocalisation [9]: 0.89
- Convulsions [10]: — (Sign never observed (equivalent to 0.00 ± 0.00))
- Defecation (N° of boluses) [10]: 1.33 N° of boluses
- Gait [10]: 2.33
- Grooming [10]: 12.67 s
- Stereotypies [10]: — (Sign never observed (equivalent to 0.00 ± 0.00))
- Tremors-Twitches [10]: 1.78
- Urination (N° of pools) [10]: 0.11 N° of pools
- Vocalisation [10]: 0.89
- Convulsions [11]: 0.67
- Defecation (N° of boluses) [11]: 2.67 N° of boluses
- Gait [11]: 1.56
- Grooming [11]: 20.33 s
- Stereotypies [11]: — (Sign never observed (equivalent to 0.00 ± 0.00))
- Tremors-Twitches [11]: 1.44
- Urination (N° of pools) [11]: 0.22 N° of pools
- Vocalisation [11]: 0.22
- Convulsions [12]: — (Sign never observed (equivalent to 0.00 ± 0.00))
- Defecation (N° of boluses) [12]: 2.44 N° of boluses
- Gait [12]: 1.67
- Grooming [12]: 17.67 s
- Stereotypies [12]: — (Sign never observed (equivalent to 0.00 ± 0.00))
- Tremors-Twitches [12]: 1.67
- Urination (N° of pools) [12]: 0.11 N° of pools
- Vocalisation [12]: 0.44
- Convulsions [13]: — (Sign never observed (equivalent to 0.00 ± 0.00))
- Defecation (N° of boluses) [13]: 1.33 N° of boluses
- Gait [13]: 2.17
- Grooming [13]: 18.22 s
- Stereotypies [13]: — (Sign never observed (equivalent to 0.00 ± 0.00))
- Tremors-Twitches [13]: 2.44
- Urination (N° of pools) [13]: 0.33 N° of pools
- Vocalisation [13]: 0.44
- Convulsions [14]: — (Sign never observed (equivalent to 0.00 ± 0.00))
- Defecation (N° of boluses) [14]: 2.33 N° of boluses
- Gait [14]: 2.56
- Grooming [14]: 25.33 s
- Stereotypies [14]: — (Sign never observed (equivalent to 0.00 ± 0.00))
- Tremors-Twitches [14]: 2.11
- Urination (N° of pools) [14]: 0.44 N° of pools
- Vocalisation [14]: 0.00
- Convulsions [15]: — (Sign never observed (equivalent to 0.00 ± 0.00))
- Defecation (N° of boluses) [15]: 1.44 N° of boluses
- Gait [15]: 2.33
- Grooming [15]: 19.11 s
- Stereotypies [15]: — (Sign never observed (equivalent to 0.00 ± 0.00))
- Tremors-Twitches [15]: 2.67
- Urination (N° of pools) [15]: 0.11 N° of pools
- Vocalisation [15]: 0.22
- deterioration (progression of symptoms) versus control mice [16]: significantly less deterioration than the control mice
- deterioration in gait [16]: substantially arrested or slowed
- progression of symptoms of Huntington's disease (involuntary movements, deterioration in gait) (transgenic mouse model of Huntington's disease): shown to arrest the progression of a number of symptoms of Huntington's disease
